This note sets out measurements from patent US20020002170A1, “Piperidine and piperazine derivatives as inhibitors of the abeta fibril formation” (priority 1999, published 2002).

Where a name gives a salt, the structure may show the parent alone.

One may read the melting point as the temperature, or range, at which the solid turns liquid. Take `CN1C[C@H](CN2CCC(O)(c3ccc(Cl)cc3)CC2)C=C2c3cccc4[nH]c(Cl)c(c34)C[C@H]21`: the melting point is > 192 °C (dec.).
In the case of `CCN1C[C@H](CN2CCN(C(c3ccccc3)c3ccccc3)CC2)C[C@@H]2c3cccc4[nH]cc(c34)C[C@H]21` it was 203 to 205 °C; in that of `COc1ccc(C2(c3ccc(OC)cc3)CCN(C[C@@H]3C=C4c5cccc6[nH]c(Cl)c(c56)C[C@H]4N(C)C3)CC2)cc1`, > 204 °C (dec.); in that of `COc1cccc2c1C[C@H]1C[C@@H](CN3CCC(NC(=O)C(c4ccccc4)c4ccccc4)CC3)CN(C)[C@@H]1C2` [Example 12, N-[1-((3S,4aR,10aR)-6-Methoxy-1-methyl-1,2,3,4,4a,5,10,10a-octahydro-benzo[g]quinolin-3-ylmethyl)-piperidin-4-yl]-2,2-diphenyl-acetamide], 219 to 222 °C.
To `CN1C[C@H](CN2CCN(C(c3ccccc3)c3ccccc3)CC2)C[C@@H]2c3cccc4[nH]cc(c34)C[C@H]21` belongs 230 to 233 °C; to `CN1C[C@H](CN2CCN(C(c3ccccc3)c3ccccc3)CC2)C=C2c3cccc4[nH]c(Cl)c(c34)C[C@H]21`, 208 °C (dec.).
In the case of `COc1ccc(C2(c3ccc(OC)cc3)CCN(C[C@H]3CN(C)[C@@H]4Cc5c[nH]c6cccc(c56)[C@@]4(OC)C3)CC2)cc1` it was 215 to 222 °C; in that of `COc1cccc2c1C[C@H]1C[C@@H](CN3CCC(O)(c4ccc(Cl)cc4)CC3)CN(C)[C@@H]1C2`, 202 to 204 °C; in that of `CN1C[C@H](CN2CCN(C(c3ccccc3)c3ccccc3)CC2)C=C2c3cccc4[nH]cc(c34)C[C@H]21`, > 200 °C (dec.).
As to `COc1cccc2c1C[C@H]1C[C@@H](CCN3CCC(O)(c4ccc(Cl)cc4)CC3)CN(C)[C@@H]1C2` (as salt: succinate), the melting point lay within 212 to 215 °C.
Consider `CN1C[C@H](CN2CCN(C(c3ccccc3)c3ccccc3)CC2)C=C2c3cccc4c3c(cn4C)C[C@H]21`, for which the melting point fell in the range of 172 to 175 °C.
To `COc1ccc(C2(c3ccc(OC)cc3)CCN(CC[C@@H]3C[C@@H]4Cc5c(cccc5OC)C[C@H]4N(C)C3)CC2)cc1` (as salt: succinate) belongs 138 to 142 °C; to `CN1C[C@H](CN2CCN(C(c3ccccc3)c3ccccc3)CC2)C[C@@H]2c3cccc4[nH]c(Cl)c(c34)C[C@H]21`, 250 °C (dec.).
In the case of `CN1C[C@H](CCN2CCC(O)(c3ccc(Cl)cc3)CC2)C=C2c3cccc4[nH]cc(c34)C[C@H]21` it was 154 to 157 °C.
To `CO[C@]12C[C@@H](CCN3CCC(O)(c4ccc(Cl)cc4)CC3)CN(C)[C@@H]1Cc1c[nH]c3cccc2c13` belongs 133 to 139 °C.
Consider `CN1C[C@H](CN2CCN(C(c3ccccc3)c3ccccc3)CC2)C[C@@H]2c3cccc4[nH]c(Br)c(c34)C[C@H]21`, for which the melting point was 255 °C (dec.).
Consider `CN1C[C@H](CCN2CCN(C(c3ccccc3)c3ccccc3)CC2)C[C@@H]2c3cccc4[nH]cc(c34)C[C@H]21`, for which the melting point fell in the range of 206 to 212 °C.
To `CO[C@]12C[C@@H](CCN3CCN(C(c4ccccc4)c4ccccc4)CC3)CN(C)[C@@H]1Cc1c[nH]c3cccc2c13` belongs 130 °C.
To `COc1ccc(C2(c3ccc(OC)cc3)CCN(CC[C@H]3CN(C)[C@@H]4Cc5c[nH]c6cccc(c56)[C@@]4(OC)C3)CC2)cc1` belongs 129 to 136 °C.
To `CO[C@]12C[C@@H](CN3CCC(O)(c4cccc(C(F)(F)F)c4)CC3)CN(C)[C@@H]1Cc1c[nH]c3cccc2c13` belongs 135 to 140 °C; to `COc1cccc2c1C[C@H]1C[C@@H](CCN3CCN(C(c4ccccc4)c4ccccc4)CC3)CN(C)[C@@H]1C2` [Example 5, [3S,4aR,10aR]-3-[2-(4-Benzhydryl-piperazin-1-yl)-ethyl]-6-methoxy-1-methyl-1,2,3,4,4a,5,10,10a-octahydro-benzo[g]quinoline], 140 to 148 °C; to `COc1ccc(C2(c3ccc(OC)cc3)CCN(CC[C@@H]3C=C4c5cccc6[nH]cc(c56)C[C@H]4N(C)C3)CC2)cc1`, 184 to 187 °C (dec.).
With `CN1C[C@H](CN2CCC(O)(c3ccc(Cl)cc3)CC2)C=C2c3cccc4c3c(cn4C)C[C@H]21`, the melting point lay within 101 to 107 °C.
In the case of `COc1ccc(C2(c3ccc(OC)cc3)CCN(C[C@@H]3C[C@@H]4Cc5c(cccc5OC)C[C@H]4N(C)C3)CC2)cc1` (as salt: fumarate), the melting point is 216 to 219 °C.
As for `CO[C@]12C[C@@H](CN3CCC(O)(c4ccc(Cl)cc4)CC3)CN(C)[C@@H]1Cc1c[nH]c3cccc2c13`, the melting point lay in the range of 144 to 148 °C.
For the compound `COc1cccc2c1C[C@H]1C[C@@H](CN3CCN(C(c4ccccc4)c4ccccc4)CC3)CN(C)[C@@H]1C2` [Example 10, [3S,4aR,10aR]-3-(4-Benzhydryl-piperazin-1-ylmethyl)-6-methoxy-1-methyl-1,2,3,4,4a,5,10,10a-octahydro-benzo[g]quinoline], the melting point lay within 278 to 280 °C.
Regarding `COc1ccc(C2(c3ccc(OC)cc3)CCN(C[C@H]3CN(C)[C@@H]4Cc5c(Br)[nH]c6cccc(c56)[C@@]4(OC)C3)CC2)cc1` (as salt: tartrate), the melting point fell in the range of 167 to 172 °C.
In the case of `CN1C[C@H](CCN2CCN(C(c3ccccc3)c3ccccc3)CC2)C=C2c3cccc4[nH]cc(c34)C[C@H]21` it was 165 to 169 °C; in that of `CO[C@]12C[C@@H](CN3CCC(O)(c4ccc(Cl)c(C(F)(F)F)c4)CC3)CN(C)[C@@H]1Cc1c[nH]c3cccc2c13`, 143 to 146 °C.
